Series [1] in a line: In vitro 3D BBB permeability assay. In kind it is in vitro ADME. The conditions noted are these: human, pH 7.
Series [2] has as its system p53-p21 axis in Mel-7 cells. Description: Western blotting of p53-p21 axis, cell-cycle proteins and Cyt c, Mel-7. In kind it is cell-based, human. The conditions noted are these: 24 hours.
Series [3] relates to BBB. The conditions noted are these: previous report; cited from earlier work.
For series [4] the following is noted: metastatic melanoma patients, 200 mg/m^2 TMZ; cited from earlier work.
For series [5] the following is noted: description in words; cited from earlier work.

As usually defined, the Papp A→B is how fast a substance crosses the layer from the apical side. Low values mean poor permeation, high ones ready permeation.

In series [1], `Cn1nnc2c(C(N)=O)ncn2c1=O` [TMZ, temozolomide] displayed a Papp A→B at 30 min, 100 μM of 2.67 ×10⁻⁶ cm/s. Further, the “Cyt c release into the cytoplasm” value in series [2] (single agent, cytosolic fraction) is reported as “increased”. In series [2] (single-agent treatment, whole-cell lysate), the p53 levels result is “substantially increased”. Moreover, the BBB permeability in series [3] was 2.7e-06 cm/s. Further, the Cmax in series [4] is on record as ~ 20 μg/mL. Also, in series [5], the lipophilicity entry is reported as “lipophilic”.
